According to the supplement of paper PMC11061612:

Experiments:
Assay in all cases: Bliss excess, mean over the matrix (fraction); higher = more synergy
[1] = system: MFH-ino (Other Solid Carcinomas)
Method in brief: (§1)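 After 24 hours at 37°C and 5% CO2 in 1536-well plates, cells in DMEM/F12 or RPMI plus 10% FBS received two-drug dose matrices for 72 hours. Viability came from CellTiter-Glo 2.0 luminescence and was scaled as inhibition, anchored at 0 by vehicle wells and at 1 by blank wells. Combination Emax is taken as the second-highest inhibition in the matrix, and Bliss excess as the observed combination effect less EA + EB − EA·EB, with EA and EB the single-agent effects.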

[2] = system: JiyoyeP-2003 (Burkitt's Lymphoma)
Method in brief: as §1

[3] = system: MDA-MB-157 (Breast Carcinoma)
Method in brief: as §1

IGR-1 (Melanoma) = system: IGR-1 (Melanoma)
Method in brief: as §1

CAL-78 (Chondrosarcoma) = system: CAL-78 (Chondrosarcoma)
Method in brief: as §1

[4] = system: G-292-Clone-A141B1 (Osteosarcoma)
Method in brief: as §1

[5] = system: NCI-H1793 (Lung Adenocarcinoma)
Method in brief: as §1

[6] = system: KARPAS-620 (Plasma Cell Myeloma)
Method in brief: as §1

[7] = system: 697 (B-Lymphoblastic Leukemia)
Method in brief: as §1

[8] = system: CFPAC-1 (Pancreatic Carcinoma)
Method in brief: as §1

[9] = system: MDA-MB-231 (Breast Carcinoma)
Method in brief: as §1

[10] = system: C3A (Hepatocellular Carcinoma)
Method in brief: as §1

[11] = system: SW780 (Bladder Carcinoma)
Method in brief: as §1

SN12C (Kidney Carcinoma) = system: SN12C (Kidney Carcinoma)
Method in brief: as §1

[12] = system: KATOIII (Gastric Carcinoma)
Method in brief: as §1

[13] = system: EM-2 (Chronic Myelogenous Leukemia)
Method in brief: as §1

[14] = system: KM-H2 (Hodgkin's Lymphoma)
Method in brief: as §1

[15] = system: HPAC (Pancreatic Carcinoma)
Method in brief: as §1

[16] = system: NALM-6 (B-Lymphoblastic Leukemia)
Method in brief: as §1

[17] = system: SNU-C5 (Colorectal Carcinoma)
Method in brief: as §1

| Compound | Bliss excess [1] | Bliss excess [2] | Bliss excess [3] | Bliss excess (IGR-1 (Melanoma)) | Bliss excess (CAL-78 (Chondrosarcoma)) | Bliss excess [4] | Bliss excess [5] | Bliss excess [6] | Bliss excess [7] | Bliss excess [8] | Bliss excess [9] | Bliss excess [10] | Bliss excess [11] | Bliss excess (SN12C (Kidney Carcinoma)) | Bliss excess [12] | Bliss excess [13] | Bliss excess [14] | Bliss excess [15] | Bliss excess [16] | Bliss excess [17] |
| --- | --- | --- | --- | --- | --- | --- | --- | --- | --- | --- | --- | --- | --- | --- | --- | --- | --- | --- | --- | --- |
| Cc1cc2ncnn2cc1Nc1ncc2c(n1)n(C1CCOCC1)c(=O)n2C [AZD7648] + CN(C)CCCOc1ccc(-c2ccc3ncc4c(c3c2)n(C2CCOCC2)c(=O)n4C)cn1 [AZD0156] (first compound max 10 µM, 7x7, partner max 1 µM) | -0.0299 | -0.0067 | 0.0406 | -0.0223 | -0.0091 | -0.0261 | 0.0044 | -0.0373 | -0.0136 | 0.0064 | 0.0146 | -0.032 | -0.0069 | -0.0388 | -0.0204 | 0.0183 | 0.0208 | -0.0025 | -0.0184 | 0.0202 |
| CC1(C)CCC(CN2CCN(c3ccc(C(=O)NS(=O)(=O)c4ccc(NCC5CCOCC5)c([N+](=O)[O-])c4)c(Oc4cnc5[nH]ccc5c4)c3)CC2)=C(c2ccc(Cl)cc2)C1 [Venetoclax] + C[C@@H]1COCCN1C2=NC(=NC(=C2)C3(CC3)[S@](=N)(=O)C)C4=C5C=CNC5=NC=C4 [AZD6738] (first compound max 1 µM, 7x7, partner max 10 µM) | -0.0926 | 0.0139 | -0.0195 | 0.0165 | 0.0138 | -0.0438 | 0.0073 | 0.0235 | 0.0052 | 0.015 | -0.0312 | -0.0503 | -0.0299 | -0.047 | -0.0859 | -0.0272 | 0.0384 | -0.0736 | 0.0565 | -0.0289 |
| CN(CCO)CC[C@H](CSc1ccccc1)Nc1ccc(S(=O)(=O)NC(=O)c2ccc(N3CCC([C@@H](O)c4ccccc4-c4ccc(Cl)cc4)CC3)cc2)cc1S(=O)(=O)C(F)(F)F [AZD4320] + C[C@@H](Nc1cc(F)cc(F)c1)c1cc(C(=O)N(C)C)cc2c(=O)cc(N3CCOCC3)oc12 [AZD8186] (first compound max 1 µM, 7x7, partner max 3 µM) | -0.0163 | 0.0195 | 0.0338 | 0.0019 | 0.0323 | -0.0014 | 0.0516 | 0.0147 | -0.003 | 0.0585 | 0.0174 | 0.0183 | 0.0084 | -0.0193 | -0.0856 | 0.0055 | 0.0237 | -0.0014 | 0.0514 | -0.0704 |
| CC1(C)CCC(CN2CCN(c3ccc(C(=O)NS(=O)(=O)c4ccc(NCC5CCOCC5)c([N+](=O)[O-])c4)c(Oc4cnc5[nH]ccc5c4)c3)CC2)=C(c2ccc(Cl)cc2)C1 [Venetoclax] + C[C@@H](Nc1cc(F)cc(F)c1)c1cc(C(=O)N(C)C)cc2c(=O)cc(N3CCOCC3)oc12 [AZD8186] (first compound max 1 µM, 7x7, partner max 3 µM) | -0.053 | 0.0246 | 0.0095 | -0.0471 | -0.0152 | -0.0195 | 0.0197 | -0.0022 | -0.0458 | 0.0034 | -0.0066 | -0.0803 | -0.0135 | -0.0777 | -0.0555 | 0.0104 | -0.0151 | -0.0029 | 0.0348 | -0.0308 |
| Cn1cnc2c(F)c(Nc3ccc(Br)cc3Cl)c(C(=O)NOCCO)cc21 [Selumetinib] + CCN(CCO)CCCOc1ccc2c(Nc3cc(CC(=O)Nc4cccc(F)c4)[nH]n3)ncnc2c1 [AZD2811] (first compound max 10 µM, 7x7, partner max 1 µM) | -0.045 | -0.0053 | -0.0064 | -0.007 | -0.0522 | -0.0367 | -0.0302 | 0.193 | 0.0059 | -0.0529 | 0.0107 | -0.0272 | -0.0198 | -0.0444 | -0.0148 | -0.0526 | -0.0193 | 0.0816 | 0.0318 | 0.038 |
| CCN(CCO)CCCOc1ccc2c(Nc3cc(CC(=O)Nc4cccc(F)c4)[nH]n3)ncnc2c1 [AZD2811] + O=C(c1cc(Cc2n[nH]c(=O)c3ccccc23)ccc1F)N1CCN(C(=O)C2CC2)CC1 [Olaparib] (first compound max 1 µM, 7x7, partner max 10 µM) | -0.0318 | 0.0809 | 0.032 | -0.0059 | 0.0006 | 0.0252 | -0.0264 | 0.0273 | 0.0165 | 0.0077 | -0.0175 | -0.0495 | 0.02 | 0.0151 | -0.0332 | -0.0589 | 0.0789 | 0.0032 | -0.0086 | -0.0041 |
| CN(CCO)CC[C@H](CSc1ccccc1)Nc1ccc(S(=O)(=O)NC(=O)c2ccc(N3CCC([C@@H](O)c4ccccc4-c4ccc(Cl)cc4)CC3)cc2)cc1S(=O)(=O)C(F)(F)F [AZD4320] + CN(C)CCCOc1ccc(-c2ccc3ncc4c(c3c2)n(C2CCOCC2)c(=O)n4C)cn1 [AZD0156] (first compound max 1 µM, 7x7, partner max 1 µM) | -0.059 | -0.0211 | -0.0046 | -0.0149 | -0.004 | -0.015 | -0.027 | 0.0092 | -0.0116 | -0.0354 | 0.0319 | -0.0281 | -0.0392 | -0.0633 | -0.034 | -0.0192 | -0.0038 | -0.0709 | 0.0217 | 0.0125 |
